HELM strings list units from the 5' end as sugar, base in round brackets, then linkage (d deoxyribose, r ribose, m 2'-O-methyl, p phosphodiester). Strings are as the collection lists them; they lack the last nucleoside at the 3' end of the tested compound. [moe] = 2'-O-(2-methoxyethyl) (MOE); [sp] = phosphorothioate linkage; [m5C] = 5-methylcytosine
Target: UBE3A-ATS
Assay: mouse, dose not given
Details: ASO

“RNA1{[moe](G)[sp].[moe]([m5C])p.[moe]([m5C])p.[moe](A)p.d(G)[sp].d(G)[sp].d(T)[sp].d(G)[sp].d(T)[sp].d([m5C])[sp].d(T)[sp].d(T)[sp].d(A)[sp].d(T)[sp].[moe](A)p.[moe](T)p.[moe]([m5C])p.[moe](T)[sp].[moe](A)}$$$$ (last 3' nucleoside missing)” was tested. Which 3 h FOB score did it give?
The 3 h FOB score was 1 score 0-7.

“RNA1{[moe](G)[sp].[moe]([m5C])p.[moe]([m5C])p.[moe](T)p.[moe](G)p.d([m5C])[sp].d(T)[sp].d([m5C])[sp].d(A)[sp].d(A)[sp].d(A)[sp].d(T)[sp].d([m5C])[sp].d(T)[sp].d(G)[sp].[moe]([m5C])p.[moe](G)p.[moe](A)[sp].[moe](A)}$$$$ (last 3' nucleoside missing)” was tested. Which 3 h FOB score did it give?
Its 3 h FOB score is 2 score 0-7.

“RNA1{[moe](G)[sp].[moe]([m5C])p.[moe]([m5C])p.[moe](T)p.[moe](T)p.d(T)[sp].d([m5C])[sp].d(T)[sp].d(A)[sp].d(T)[sp].d(T)[sp].d(T)[sp].d([m5C])[sp].d(A)[sp].d(G)[sp].[moe](A)p.[moe]([m5C])p.[moe]([m5C])[sp].[moe](G)}$$$$ (last 3' nucleoside missing)” was tested. Which 3 h FOB score did it give?
Its 3 h FOB score is 1 score 0-7.

For “RNA1{[moe](T)[sp].[moe](A)p.[moe](A)p.[moe](A)p.[moe](A)p.d(T)[sp].d([m5C])[sp].d([m5C])[sp].d(A)[sp].d(T)[sp].d(T)[sp].d(T)[sp].d(G)[sp].d(T)[sp].d([m5C])[sp].[moe]([m5C])p.[moe](A)p.[moe](G)[sp].[moe](T)}$$$$ (last 3' nucleoside missing)”, which 3 h FOB score is on record?
The 3 h FOB score was 3.3 score 0-7.

“RNA1{[moe](T)[sp].[moe](A)p.[moe](A)p.[moe](A)p.[moe](A)p.d([m5C])[sp].d(G)[sp].d([m5C])[sp].d(A)[sp].d(A)[sp].d(T)[sp].d(G)[sp].d(T)[sp].d(A)[sp].d(T)[sp].[moe]([m5C])p.[moe](A)p.[moe](G)[sp].[moe](G)}$$$$ (last 3' nucleoside missing)” was tested. Which 3 h FOB score did it give?
Its 3 h FOB score is 1 score 0-7.

For “RNA1{[moe](T)[sp].[moe](A)p.[moe](A)p.[moe](G)p.[moe](G)p.d(T)[sp].d([m5C])[sp].d(T)[sp].d(G)[sp].d(T)[sp].d(T)[sp].d(A)[sp].d(T)[sp].d(T)[sp].d([m5C])[sp].[moe](T)p.[moe]([m5C])p.[moe]([m5C])[sp].[moe]([m5C])}$$$$ (last 3' nucleoside missing)”, which 3 h FOB score is on record?
The 3 h FOB score was 0.8 score 0-7.

How did the 3 h FOB score turn out when “RNA1{[moe](T)[sp].[moe](A)p.[moe](A)p.[moe](G)p.[moe](T)p.d(A)[sp].d(T)[sp].d(A)[sp].d(G)[sp].d(A)[sp].d(T)[sp].d(G)[sp].d([m5C])[sp].d([m5C])[sp].d(T)[sp].[moe]([m5C])p.[moe](T)p.[moe]([m5C])[sp].[moe]([m5C])}$$$$ (last 3' nucleoside missing)” was run?
Its 3 h FOB score is 3.7 score 0-7.

Which 3 h FOB score does the source give for “RNA1{[moe](T)[sp].[moe](A)p.[moe](A)p.[moe]([m5C])p.[moe](T)p.d(G)[sp].d([m5C])[sp].d(T)[sp].d(T)[sp].d([m5C])[sp].d(A)[sp].d([m5C])[sp].d([m5C])[sp].d(A)[sp].d(T)[sp].[moe](T)p.[moe](T)p.[moe](T)[sp].[moe](G)}$$$$ (last 3' nucleoside missing)” here?
Its 3 h FOB score is 0 score 0-7.

For “RNA1{[moe](T)[sp].[moe](A)p.[moe](G)p.[moe](A)p.[moe](T)p.d(T)[sp].d(G)[sp].d(G)[sp].d(G)[sp].d([m5C])[sp].d(T)[sp].d(T)[sp].d(T)[sp].d(A)[sp].d(G)[sp].[moe](A)p.[moe](G)p.[moe](G)[sp].[moe](T)}$$$$ (last 3' nucleoside missing)”, which 3 h FOB score is on record?
The 3 h FOB score was 5 score 0-7.

“RNA1{[moe](T)[sp].[moe](A)p.[moe](G)p.[moe](G)p.[moe](G)p.d(T)[sp].d(G)[sp].d(G)[sp].d(T)[sp].d(T)[sp].d(G)[sp].d(G)[sp].d(T)[sp].d(T)[sp].d([m5C])[sp].[moe](A)p.[moe](A)p.[moe](A)[sp].[moe](A)}$$$$ (last 3' nucleoside missing)” was tested. Which 3 h FOB score did it give?
Its 3 h FOB score is 5.7 score 0-7.

“RNA1{[moe](T)[sp].[moe](A)p.[moe](G)p.[moe](G)p.[moe](T)p.[moe]([m5C])p.d(A)[sp].d(A)[sp].d([m5C])[sp].d([m5C])[sp].d(A)[sp].d(A)[sp].d(T)[sp].d(T)[sp].d(T)[sp].d(G)[sp].[moe]([m5C])p.[moe](T)[sp].[moe](A)}$$$$ (last 3' nucleoside missing)” was tested. Which 3 h FOB score did it give?
Its 3 h FOB score is 5 score 0-7.

With “RNA1{[moe](T)[sp].[moe](A)p.[moe](G)p.[moe](G)p.[moe](T)p.d([m5C])[sp].d(A)[sp].d(A)[sp].d([m5C])[sp].d([m5C])[sp].d(A)[sp].d(A)[sp].d(T)[sp].d(T)[sp].d(T)[sp].[moe](G)p.[moe]([m5C])p.[moe](T)[sp].[moe](A)}$$$$ (last 3' nucleoside missing)” as the substance, how does the 3 h FOB score read?
Its 3 h FOB score is 0 score 0-7.

With “RNA1{[moe](T)[sp].[moe](A)p.[moe](G)p.[moe](G)p.[moe]([m5C])p.d(T)[sp].d(G)[sp].d(G)[sp].d(G)[sp].d([m5C])[sp].d([m5C])[sp].d(T)[sp].d([m5C])[sp].d(A)[sp].d(G)[sp].[moe]([m5C])p.[moe](G)p.[moe](T)[sp].[moe](A)}$$$$ (last 3' nucleoside missing)” as the substance, how does the 3 h FOB score read?
The 3 h FOB score was 3.5 score 0-7.

Which 3 h FOB score does the source give for “RNA1{[moe](T)[sp].[moe](A)p.[moe](G)p.[moe](G)p.d(T)[sp].d([m5C])[sp].d(A)[sp].d(A)[sp].d([m5C])[sp].d([m5C])[sp].d(A)[sp].d(A)[sp].d(T)[sp].d(T)[sp].[moe](T)p.[moe](G)p.[moe]([m5C])p.[moe](T)[sp].[moe](A)}$$$$ (last 3' nucleoside missing)” here?
Its 3 h FOB score is 0 score 0-7.

“RNA1{[moe](T)[sp].[moe](A)p.[moe](G)p.[moe](T)p.[moe](T)p.d(T)[sp].d([m5C])[sp].d(A)[sp].d([m5C])[sp].d([m5C])[sp].d(G)[sp].d(A)[sp].d(A)[sp].d(A)[sp].d(G)[sp].[moe](T)p.[moe](A)p.[moe]([m5C])[sp].[moe](A)}$$$$ (last 3' nucleoside missing)” was tested. Which 3 h FOB score did it give?
Its 3 h FOB score is 2.5 score 0-7.

“RNA1{[moe](T)[sp].[moe](A)p.[moe](G)p.[moe](T)p.[moe]([m5C])p.d(T)[sp].d(A)[sp].d(A)[sp].d(G)[sp].d(G)[sp].d([m5C])[sp].d(A)[sp].d(G)[sp].d(T)[sp].d([m5C])[sp].[moe](A)p.[moe](G)p.[moe](G)[sp].[moe](G)}$$$$ (last 3' nucleoside missing)” was tested. Which 3 h FOB score did it give?
Its 3 h FOB score is 6 score 0-7.

“RNA1{[moe](T)[sp].[moe](A)p.[moe](T)p.[moe](A)p.[moe](G)p.d(G)[sp].d(G)[sp].d(T)[sp].d(G)[sp].d(G)[sp].d(T)[sp].d(T)[sp].d(G)[sp].d(G)[sp].d(T)[sp].[moe](T)p.[moe]([m5C])p.[moe](A)[sp].[moe](A)}$$$$ (last 3' nucleoside missing)” was tested. Which 3 h FOB score did it give?
Its 3 h FOB score is 6 score 0-7.

With “RNA1{[moe](T)[sp].[moe](A)p.[moe](T)p.[moe](G)p.[moe](T)p.d(A)[sp].d(G)[sp].d([m5C])[sp].d(T)[sp].d([m5C])[sp].d(A)[sp].d(G)[sp].d([m5C])[sp].d(T)[sp].d([m5C])[sp].[moe](A)p.[moe](A)p.[moe](T)[sp].[moe](G)}$$$$ (last 3' nucleoside missing)” as the substance, how does the 3 h FOB score read?
Its 3 h FOB score is 1 score 0-7.

How did the 3 h FOB score turn out when “RNA1{[moe](T)[sp].[moe](A)p.[moe](T)p.[moe](T)p.[moe](G)p.[moe](G)p.d(T)[sp].d([m5C])[sp].d(A)[sp].d(T)[sp].d([m5C])[sp].d(T)[sp].d([m5C])[sp].d(G)[sp].d(G)[sp].d(G)[sp].[moe](T)p.[moe](A)[sp].[moe](T)}$$$$ (last 3' nucleoside missing)” was run?
Its 3 h FOB score is 4 score 0-7.

For “RNA1{[moe](T)[sp].[moe](A)p.[moe](T)p.[moe](T)p.[moe](G)p.d(G)[sp].d(T)[sp].d([m5C])[sp].d(A)[sp].d(T)[sp].d([m5C])[sp].d(T)[sp].d([m5C])[sp].d(G)[sp].d(G)[sp].[moe](G)p.[moe](T)p.[moe](A)[sp].[moe](T)}$$$$ (last 3' nucleoside missing)”, which 3 h FOB score is on record?
Its 3 h FOB score is 3.3 score 0-7.

With “RNA1{[moe](T)[sp].[moe](A)p.[moe](T)p.[moe](T)p.[moe](G)p.d([m5C])[sp].d([m5C])[sp].d(T)[sp].d(T)[sp].d([m5C])[sp].d(A)[sp].d([m5C])[sp].d(T)[sp].d(G)[sp].d([m5C])[sp].[moe](T)p.[moe](G)p.[moe]([m5C])[sp].[moe]([m5C])}$$$$ (last 3' nucleoside missing)” as the substance, how does the 3 h FOB score read?
Its 3 h FOB score is 3.2 score 0-7.

With “RNA1{[moe](T)[sp].[moe](A)p.[moe](T)p.[moe](T)p.d(G)[sp].d(G)[sp].d(T)[sp].d([m5C])[sp].d(A)[sp].d(T)[sp].d([m5C])[sp].d(T)[sp].d([m5C])[sp].d(G)[sp].[moe](G)p.[moe](G)p.[moe](T)p.[moe](A)[sp].[moe](T)}$$$$ (last 3' nucleoside missing)” as the substance, how does the 3 h FOB score read?
Its 3 h FOB score is 4 score 0-7.

For “RNA1{[moe](T)[sp].[moe](G)[sp].[moe]([m5C])[sp].[moe]([m5C])[sp].[moe](A)[sp].d(T)[sp].d([m5C])[sp].d(T)[sp].d(T)[sp].d([m5C])[sp].d(A)[sp].d(A)[sp].d(G)[sp].d(A)[sp].d([m5C])[sp].[moe](T)[sp].[moe](A)[sp].[moe](A)[sp].[moe](G)}$$$$ (last 3' nucleoside missing)”, which 3 h FOB score is on record?
The 3 h FOB score was 6.8 score 0-7.

For “RNA1{[moe](T)[sp].[moe](G)p.[moe](A)p.[moe](G)[sp].d([m5C])[sp].d(T)[sp].d(A)[sp].d(T)[sp].d([m5C])[sp].d(T)[sp].d(G)[sp].d(T)[sp].[moe](A)p.[moe]([m5C])p.[moe](A)p.[moe](A)[sp].[moe](A)}$$$$ (last 3' nucleoside missing)”, which 3 h FOB score is on record?
Its 3 h FOB score is 3 score 0-7.

For “RNA1{[moe](T)[sp].[moe](G)p.[moe](A)p.[moe](G)p.[moe]([m5C])[sp].d(T)[sp].d(A)[sp].d(T)[sp].d([m5C])[sp].d(T)[sp].d(G)[sp].d(T)[sp].d(A)[sp].[moe]([m5C])p.[moe](A)p.[moe](A)[sp].[moe](A)}$$$$ (last 3' nucleoside missing)”, which 3 h FOB score is on record?
Its 3 h FOB score is 4.7 score 0-7.

Which 3 h FOB score does the source give for “RNA1{[moe](T)[sp].[moe](G)p.[moe](A)p.[moe](G)p.[moe]([m5C])p.[moe](T)[sp].d(A)[sp].d(T)[sp].d([m5C])[sp].d(T)[sp].d(G)[sp].d(T)[sp].d(A)[sp].d([m5C])[sp].[moe](A)p.[moe](A)[sp].[moe](A)}$$$$ (last 3' nucleoside missing)” here?
The 3 h FOB score was 5 score 0-7.
